Assay [1] concerns the target T1, Mcl-1/Bim interaction, recombinant human Mcl-1 (171-327) (Homo sapiens, UniProt Q07820).
T1 construct: made in house
Description: Cell free Mcl-1: Bim Affinity Assay (Mcl-1 HTRF). Type of assay: binding. The gist of the method:
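Compounds were mixed with the protein and a biotinylated Bim peptide spanning human residues 51-76. Plates were left overnight, then TR-FRET signal was measured. A four-parameter sigmoidal model applied to duplicate competition data gave IC50.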
(Time-resolved FRET reads energy transfer from a long-lived donor to a nearby acceptor.)

The test system of assay [2] is OPM-2 human multiple myeloma cell line. Kind of assay: Cell Viability Assay (OPM-2 10 FBS). In kind it is cell-based. The note with it: OPM-2 cells, 16 h, CellTiter-Glo. Put shortly: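 ATP-based luminescence (CellTiter-Glo) measured after a 16 h compound treatment of OPM-2 cells seeded at 3000 cells/well in 10% FBS medium. IC50 values derived by 4-parameter logistic fitting of serial dilutions.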
(In general: In ATP-based viability assays light output follows the ATP content of the culture.)

The mark [3] stands for this setting: TR-FRET, 0.1 nM Mcl-1 (171-327), 0.05 nM biotin-Bim (51-76).
[4] abbreviates: cell free Mcl-1:Bim TR-FRET, recombinant human Mcl-1 (171-327).

The structures appear in SMILES notation.

T1 sequence (Q07820 171-327): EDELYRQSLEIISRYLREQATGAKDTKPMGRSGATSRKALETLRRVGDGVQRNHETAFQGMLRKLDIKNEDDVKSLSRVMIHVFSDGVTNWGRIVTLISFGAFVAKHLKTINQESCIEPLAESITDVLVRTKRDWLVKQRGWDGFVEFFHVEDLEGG

Turning to `C=C1[C@@H](C)C/C=C/[C@H](O)[C@@H]2CC[C@H]2CN2C[C@@]3(CCCc4cc(Cl)ccc43)COc3ccc(cc32)C(=O)NS1(=O)=O` (single isomer, unassigned) [Example 468], the IC50 in assay [1] (setting [3]) turned out to be 0.299 nM; in assay [2] (Homo sapiens, OPM-2, 16 h) it was 262 nM.
Turning to `CCOC[C@@H]1[C@@H](C)C/C=C/[C@H](OC)[C@@H]2CC[C@H]2CN2C[C@@]3(CCCc4cc(Cl)ccc43)COc3ccc(cc32)C(=O)NS1(=O)=O` (single isomer, unassigned) [Example 469], the results for the IC50 in assay [1] (setting [3]) and in assay [2] were 0.973 nM and 334 nM, respectively.
For `CC[C@@H]1[C@@H](OCCOC)C/C=C/[C@H](O)[C@@H]2CC[C@H]2CN2C[C@@]3(CCCc4cc(Cl)ccc43)COc3ccc(cc32)C(=O)NS1(=O)=O` (single isomer, unassigned) [Example 470], the concentration for half-maximal inhibition (IC50) in assay [1] (setting [4]) turned out to be 0.726 nM; in assay [2], 355 nM.
Turning to `COCC1CC(C)C=CC(O)C2CCC2CN2CC3(CCCc4cc(Cl)ccc43)COc3ccc(cc32)C(=O)NS1(=O)=O` (single isomer, unassigned) [Example 471], the IC50 stood at 0.188 nM in assay [1] (setting [4]) and 141 nM in assay [2] (Homo sapiens, OPM-2, 16 h).
`COC[C@@H]1C[C@H](C)/C=C/[C@H](O)[C@@H]2CC[C@H]2CN2C[C@@]3(CCCc4cc(Cl)ccc43)COc3ccc(cc32)C(=O)NS1(=O)=O` (single isomer, unassigned) [Example 472]: the IC50 in assay [1] (setting [4]) is 0.27 nM; in assay [2] it was 206 nM.
The matching figures for `COC[C@@H]1C[C@@H](C)/C=C/[C@H](OC)[C@@H]2CC[C@H]2CN2C[C@@]3(CCCc4cc(Cl)ccc43)COc3ccc(cc32)C(=O)NS1(=O)=O` (single isomer, unassigned) [Example 473]: 0.369 nM and 160 nM.
In the case of `COCC[C@@H]1C[C@@H](C)/C=C/[C@H](O)[C@@H]2CC[C@H]2CN2C[C@@]3(CCCc4cc(Cl)ccc43)COc3ccc(cc32)C(=O)NS1(=O)=O` (single isomer, unassigned) [Example 477], the IC50 is 0.311 nM in assay [1] (setting [4]) and 286 nM in assay [2].
In the case of `COCC[C@@H]1C[C@H](C)/C=C/[C@H](O)[C@@H]2CC[C@H]2CN2C[C@@]3(CCCc4cc(Cl)ccc43)COc3ccc(cc32)C(=O)NS1(=O)=O` (single isomer, unassigned) [Example 478], the IC50 was 0.197 nM in assay [1] (setting [4]) and 468 nM in assay [2].
Taken in the same sequence, the figures for `COCC[C@H]1C[C@H](C)/C=C/[C@H](O)[C@@H]2CC[C@H]2CN2C[C@@]3(CCCc4cc(Cl)ccc43)COc3ccc(cc32)C(=O)NS1(=O)=O` (single isomer, unassigned) [Example 479] were 5.37 nM and 8120 nM.
On to `CC(C)C[C@@H]1C[C@@H](C)/C=C/[C@H](O)[C@@H]2CC[C@H]2CN2C[C@@]3(CCCc4cc(Cl)ccc43)COc3ccc(cc32)C(=O)NS1(=O)=O` (single isomer, unassigned) [Example 480], for which the 50% inhibitory concentration (IC50) is 0.394 nM in assay [1] (setting [4]) and 1080 nM in assay [2].
On to `CC(C)CC1CC(C)C=CC(O)C2CCC2CN2CC3(CCCc4cc(Cl)ccc43)COc3ccc(cc32)C(=O)NS1(=O)=O` (single isomer, unassigned) [Example 482], for which the IC50 came out at 7.52 nM in assay [1] (setting [4]) and 7640 nM in assay [2] (Homo sapiens, OPM-2, 16 h).
In the case of `COCC[C@@H]1C[C@@H](C)/C=C/[C@H](OC)[C@@H]2CC[C@H]2CN2C[C@@]3(CCCc4cc(Cl)ccc43)COc3ccc(cc32)C(=O)NS1(=O)=O` (single isomer, unassigned) [Example 484], the half-maximal inhibitory concentration (IC50) in assay [1] (setting [4]) turned out to be 0.331 nM; in assay [2] it was 412 nM.
The matching figures for `COCC[C@@H]1C[C@H](C)/C=C/[C@H](OC)[C@@H]2CC[C@H]2CN2C[C@@]3(CCCc4cc(Cl)ccc43)COc3ccc(cc32)C(=O)NS1(=O)=O` (single isomer, unassigned) [Example 485]: 0.471 nM and 558 nM.
The matching figures for `CO[C@H]1/C=C/[C@H](O)[C@@H]2CC[C@H]2CN2C[C@@]3(CCCc4cc(Cl)ccc43)COc3ccc(cc32)C(=O)NS(=O)(=O)[C@H](C)C1` (single isomer, unassigned) [Example 487]: 1.05 nM and 5800 nM.
Taken in the same sequence, the figures for `CO[C@H]1/C=C/[C@H](O)[C@@H]2CC[C@H]2CN2C[C@@]3(CCCc4cc(Cl)ccc43)COc3ccc(cc32)C(=O)NS(=O)(=O)[C@@H](C)C1` (single isomer, unassigned) [Example 488] were 5.21 nM and 12900 nM.
On to `CO[C@@H]1/C=C/[C@H](O)[C@@H]2CC[C@H]2CN2C[C@@]3(CCCc4cc(Cl)ccc43)COc3ccc(cc32)C(=O)NS(=O)(=O)[C@H](C)C1` (single isomer, unassigned) [Example 489], for which the 50% inhibitory concentration (IC50) in assay [1] (setting [4]) was 0.666 nM; in assay [2], 1220 nM.
Taken in the same sequence, the figures for `CO[C@@H]1/C=C/[C@H](O)[C@@H]2CC[C@H]2CN2C[C@@]3(CCCc4cc(Cl)ccc43)COc3ccc(cc32)C(=O)NS(=O)(=O)[C@@H](C)C1` (single isomer, unassigned) [Example 490] were 2.09 nM and 7960 nM.
The matching figures for `C[C@H]1/C=C/[C@H](O)[C@@H]2CC[C@H]2CN2C[C@@]3(CCCc4cc(Cl)ccc43)COc3ccc(cc32)C(=O)NS(=O)(=O)CC1` (single isomer, unassigned) [Example 491]: 0.774 nM and 3480 nM.
In the case of `C[C@H]1/C=C/[C@@H](O)[C@@H]2CC[C@H]2CN2C[C@@]3(CCCc4cc(Cl)ccc43)COc3ccc(cc32)C(=O)NS(=O)(=O)CC1(C)C` (single isomer, unassigned) [Example 494], the figures for the IC50 in assay [1] (setting [4]) and in assay [2] were 8.81 nM and 3680 nM, respectively.
On to `CO[C@H](C)C[C@H]1CC/C=C/[C@H](O)[C@@H]2CC[C@H]2CN2C[C@@]3(CCCc4cc(Cl)ccc43)COc3ccc(cc32)C(=O)NS1(=O)=O` (single isomer, unassigned) [Example 508], for which the IC50 in assay [1] (setting [4]) came out at 6.02 nM; in assay [2], 2470 nM.
Taken in the same sequence, the figures for `CO[C@H](C)C[C@H]1CC/C=C/[C@H](O)[C@@H]2CC[C@H]2CN2C[C@@]3(CCCc4cc(Cl)ccc43)COc3ccc(cc32)C(=O)NS1(=O)=O` (single isomer, unassigned) [Example 514] were 0.391 nM and 165 nM.
Regarding `C[C@@H]1[C@@H](C)C/C=C/[C@H](OC[C@@H](C)O)[C@@H]2CC[C@H]2CN2C[C@@]3(CCCc4cc(Cl)ccc43)COc3ccc(cc32)C(=O)NS1(=O)=O` (single isomer, unassigned) [Example 527], the IC50 amounted to 0.217 nM in assay [1] (setting [4]) and 64.7 nM in assay [2].
For the compound `C[C@@H]1[C@@H](C)C/C=C/[C@H](OC[C@@H](C)O)[C@@H]2CC[C@H]2CN2C[C@@]3(CCCc4cc(Cl)ccc43)COc3ccc(cc32)C(=O)NS1(=O)=O` (single isomer, unassigned) [Example 528], the IC50 stood at 0.253 nM in assay [1] (setting [4]) and 69.6 nM in assay [2].
Consider `CO[C@H](C)CC1[C@@H](C)C/C=C/[C@H](O)[C@@H]2CC[C@H]2CN2C[C@@]3(CCCc4cc(Cl)ccc43)COc3ccc(cc32)C(=O)NS1(=O)=O` (single isomer, unassigned) [Example 529], for which the IC50 in assay [1] (setting [4]) was 0.97 nM; in assay [2], 754 nM.
`CO[C@H](C)C[C@@H]1[C@@H](C)C/C=C/[C@H](OC)[C@@H]2CC[C@H]2CN2C[C@@]3(CCCc4cc(Cl)ccc43)COc3ccc(cc32)C(=O)NS1(=O)=O` (single isomer, unassigned) [Example 535]: the IC50 was determined as 0.389 nM in assay [1] (setting [4]) and 162 nM in assay [2] (Homo sapiens, OPM-2, 16 h).
`CO[C@H](C)C[C@@H]1[C@@H](C)C/C=C/[C@H](O)[C@@H]2CC[C@H]2CN2C[C@@]3(CCCc4cc(Cl)ccc43)COc3ccc(cc32)C(=O)NS1(=O)=O` (single isomer, unassigned) [Example 540]: the figures for the IC50 in assay [1] (setting [4]) and in assay [2] were 0.236 nM and 94.1 nM, respectively.
Taken in the same sequence, the figures for `CO[C@H]1/C=C\CC[C@@H](C[C@@H](C)O)S(=O)(=O)NC(=O)c2ccc3c(c2)N(C[C@@H]2CC[C@H]21)C[C@@]1(CCCc2cc(Cl)ccc21)CO3` (single isomer, unassigned) [Example 543] were 0.535 nM and 699 nM.
Regarding `C[C@@H](O)C[C@@H]1CC/C=C/[C@H](O)[C@@H]2CC[C@H]2CN2C[C@@]3(CCCc4cc(Cl)ccc43)COc3ccc(cc32)C(=O)NS1(=O)=O` (single isomer, unassigned) [Example 544], the IC50 was 0.193 nM in assay [1] (setting [4]) and 1520 nM in assay [2].
Taken in the same sequence, the figures for `C[C@H](O)C[C@@H]1CC/C=C/[C@H](O)[C@@H]2CC[C@H]2CN2C[C@@]3(CCCc4cc(Cl)ccc43)COc3ccc(cc32)C(=O)NS1(=O)=O` (single isomer, unassigned) [Example 546] were 0.28 nM and 854 nM.
The matching figures for `C[C@H](O)C[C@@H]1CC/C=C\[C@H](O)[C@@H]2CC[C@H]2CN2C[C@@]3(CCCc4cc(Cl)ccc43)COc3ccc(cc32)C(=O)NS1(=O)=O` (single isomer, unassigned) [Example 547]: 0.239 nM and 2220 nM.
With `CO[C@H]1/C=C/CC[C@@H](C[C@@H](C)O)S(=O)(=O)NC(=O)c2ccc3c(c2)N(C[C@@H]2CC[C@H]21)C[C@@]1(CCCc2cc(Cl)ccc21)CO3` (single isomer, unassigned) [Example 548], the IC50 amounted to 0.275 nM in assay [1] (setting [4]) and 478 nM in assay [2].
The matching figures for `CO[C@H](C)C[C@@H]1CC/C=C/[C@H](OC)[C@@H]2CC[C@H]2CN2C[C@@]3(CCCc4cc(Cl)ccc43)COc3ccc(cc32)C(=O)NS1(=O)=O` (single isomer, unassigned) [Example 549]: 0.554 nM and 285 nM.
Consider `C[C@@H](O)C[C@@H]1CC/C=C\[C@H](O)[C@@H]2CC[C@H]2CN2C[C@@]3(CCCc4cc(Cl)ccc43)COc3ccc(cc32)C(=O)NS1(=O)=O` (single isomer, unassigned) [Example 550], for which the IC50 in assay [1] (setting [4]) worked out at 0.582 nM; in assay [2] (Homo sapiens, OPM-2, 16 h) it was 7290 nM.

The IC50 is the midpoint of a concentration-inhibition curve.

Values taken from patent US12091425B2 (AMGEN INC., priority 2016, dated 2024).
